Where “and” joins values, the source holds several entries; their conditions need not be identical. Identical values can stand only once.
Assay: xn = mol fraction of the nth substance listed

CCCC(=O)O + O
Conditions | viscosity [mPa·s]
293.15 K, 101 kPa, x1 = 0.015 | 1.31
293.15 K, 101 kPa, x1 = 0.034 | 1.64
293.15 K, 101 kPa, x1 = 0.078 | 2.41
293.15 K, 101 kPa, x1 = 0.165 | 3.24
293.15 K, 101 kPa, x1 = 0.316 | 3.71
293.15 K, 101 kPa, x1 = 0.497 | 3.6
293.15 K, 101 kPa, x1 = 0.664 | 3.25
293.15 K, 101.33 kPa, x1 = 0.0222 | 1.332
293.15 K, 101.33 kPa, x1 = 0.0806 | 2.265
293.15 K, 101.33 kPa, x1 = 0.17 | 3.095
298.15 K, 101 kPa, x1 = 0.006288 | 0.973
298.15 K, 101 kPa, x1 = 0.01294 | 1.065
298.15 K, 101 kPa, x1 = 0.02 | 1.152
298.15 K, 101 kPa, x1 = 0.02743 | 1.248
298.15 K, 101 kPa, x1 = 0.03475 | 1.344
298.15 K, 101 kPa, x1 = 0.04154 | 1.44
298.15 K, 101 kPa, x1 = 0.04898 | 1.55
298.15 K, 101 kPa, x1 = 0.05981 | 1.695
298.15 K, 101 kPa, x1 = 0.07342 | 1.881
298.15 K, 101 kPa, x1 = 0.08697 | 2.038
298.15 K, 101 kPa, x1 = 0.1045 | 2.222
298.15 K, 101 kPa, x1 = 0.1191 | 2.365
298.15 K, 101 kPa, x1 = 0.133 | 2.463
298.15 K, 101 kPa, x1 = 0.144 | 2.538
298.15 K, 101 kPa, x1 = 0.17 | 2.699
298.15 K, 101 kPa, x1 = 0.2 | 2.823
298.15 K, 101 kPa, x1 = 0.237 | 2.941
298.15 K, 101 kPa, x1 = 0.277 | 3.039
298.15 K, 101 kPa, x1 = 0.321 | 3.121
298.15 K, 101 kPa, x1 = 0.36 | 3.129
298.15 K, 101 kPa, x1 = 0.408 | 3.136
298.15 K, 101 kPa, x1 = 0.472 | 3.095
298.15 K, 101 kPa, x1 = 0.529 | 3.032
298.15 K, 101 kPa, x1 = 0.618 | 2.861
298.15 K, 101 kPa, x1 = 0.669 | 2.702
298.15 K, 101 kPa, x1 = 0.816 | 2.249
308.15 K, 101 kPa, x1 = 0.006288 | 0.777
308.15 K, 101 kPa, x1 = 0.01294 | 0.844
308.15 K, 101 kPa, x1 = 0.02 | 0.911
308.15 K, 101 kPa, x1 = 0.02743 | 0.979
308.15 K, 101 kPa, x1 = 0.03475 | 1.048
308.15 K, 101 kPa, x1 = 0.04154 | 1.12
308.15 K, 101 kPa, x1 = 0.04898 | 1.201
308.15 K, 101 kPa, x1 = 0.05981 | 1.308
308.15 K, 101 kPa, x1 = 0.07342 | 1.445
308.15 K, 101 kPa, x1 = 0.08697 | 1.563
308.15 K, 101 kPa, x1 = 0.1045 | 1.695
308.15 K, 101 kPa, x1 = 0.1191 | 1.769
308.15 K, 101 kPa, x1 = 0.133 | 1.873
308.15 K, 101 kPa, x1 = 0.144 | 1.932
308.15 K, 101 kPa, x1 = 0.17 | 2.049
308.15 K, 101 kPa, x1 = 0.2 | 2.15
308.15 K, 101 kPa, x1 = 0.237 | 2.243
308.15 K, 101 kPa, x1 = 0.277 | 2.322
308.15 K, 101 kPa, x1 = 0.321 | 2.392
308.15 K, 101 kPa, x1 = 0.36 | 2.415
308.15 K, 101 kPa, x1 = 0.408 | 2.415
308.15 K, 101 kPa, x1 = 0.472 | 2.398
308.15 K, 101 kPa, x1 = 0.529 | 2.358
308.15 K, 101 kPa, x1 = 0.618 | 2.248
308.15 K, 101 kPa, x1 = 0.669 | 2.142
308.15 K, 101 kPa, x1 = 0.816 | 1.819
313.15 K, 101.33 kPa, x1 = 0.0222 | 0.848
313.15 K, 101.33 kPa, x1 = 0.0806 | 1.327
313.15 K, 101.33 kPa, x1 = 0.17 | 1.786

CCCC(C)O (centres undefined) + O
298.15 K, 101 kPa
Conditions | viscosity [mPa·s]
x2 = 0.008 | 3.443
x2 = 0.0721 | 3.234
x2 = 0.0934 | 3.182
x2 = 0.1359 | 3.129
x2 = 0.1655 | 3.111
x2 = 0.1981 | 3.104
x2 = 0.2187 | 3.114
x2 = 0.2403 | 3.119
x2 = 0.255 | 3.125
x2 = 0.2971 | 3.163

CCCCCCCCCCCCOS(=O)(=O)[O-].[Na+] + O
101.33 kPa
Conditions | viscosity [mPa·s]
303.15 K, x1 = 0.000252 | 0.8085
308.15 K, x1 = 0.000324 | 0.7345
308.15 K, x1 = 0.000432 | 0.7465
313.15 K, x1 = 7.2e-05 | 0.6585

CCN(C=O)CC + O
298.16 K, 101 kPa
Conditions | viscosity [mPa·s]
x2 = 0.1029 | 1.23
x2 = 0.247 | 1.47
x2 = 0.3904 | 1.84
x2 = 0.5426 | 2.38
x2 = 0.6681 | 2.83
x2 = 0.7344 | 3
x2 = 0.7646 | 3.01
x2 = 0.8236 | 2.9
x2 = 0.8813 | 2.53

CC[N+](CC)(CC)CC.[OH-] + O
viscosity [mPa·s], 101 kPa
Conditions | x1 = 0.00313 | x1 = 0.0064 | x1 = 0.01341 | x1 = 0.02113 | x1 = 0.02968 | x1 = 0.03918 | x1 = 0.04982
298.15 K | 0.9776 | 1.114 | 1.248 | 1.659 | 2.07 | 2.869 | 3.679
303.15 K | 0.8738 | 0.9902 | 1.107 | 1.453 | 1.8 | 2.455 | 3.111
313.15 K | 0.7149 | 0.8019 | 0.8902 | 1.144 | 1.399 | 1.856 | 2.313
323.15 K | 0.6005 | 0.6598 | 0.7359 | 0.9278 | 1.121 | 1.45 | 1.779

O=P([O-])(O)O.[Li+] + O
viscosity [mPa·s], 101 kPa
Conditions | x1 = 0.0018 | x1 = 0.0054 | x1 = 0.0089 | x1 = 0.012 | x1 = 0.016
298.15 K | 0.9076 | 1.021 | 1.099 | 1.209 | 1.318
303.15 K | 0.8338 | 0.9078 | 0.9891 | 1.084 | 1.211
308.15 K | 0.7493 | 0.8183 | 0.888 | 0.9579 | 1.028

OCC(O)C(O)CO (centres undefined) + O
viscosity [mPa·s], 101 kPa
Conditions | 293.15 K | 298.15 K | 303.15 K | 308.15 K | 313.15 K | 318.15 K | 323.15 K
x1 = 0.005 | 1.176 | 1.05 | 0.915 | 0.79 | – | 0.649 | 0.62
x1 = 0.01 | – | 1.152 | 1.021 | 0.912 | 0.821 | 0.744 | 0.679
x1 = 0.015 | 1.42 | 1.25 | 1.109 | 0.968 | 0.891 | 0.808 | 0.736
x1 = 0.02 | 1.53 | 1.327 | 1.191 | 1.053 | 0.965 | 0.86 | 0.813

[Cl-].[Li+] + O
Conditions | viscosity
293.15 K, 101 kPa, x1 = 0.17 | 4.51 mPa·s
293.15 K, 101 kPa, x1 = 0.19 | 6.01 mPa·s
293.15 K, 101 kPa, x1 = 0.2 | 7.36 mPa·s
293.15 K, 101 kPa, x1 = 0.22 | 9.66 mPa·s
293.15 K, 101 kPa, x1 = 0.23 | 10.29 mPa·s
293.15 K, 101 kPa, x1 = 0.24 | 11.28 mPa·s and 12.73 mPa·s
293.15 K, 101 kPa, x1 = 0.25 | 14.55 mPa·s
293.15 K, 101 kPa, x1 = 0.26 | 15.87 mPa·s
293.15 K, 101 kPa, x1 = 0.27 | 17.76 mPa·s
298.15 K, 101 kPa, x1 = 0.26 | 16.51 mPa·s
298.15 K, 101.33 kPa, x1 = 0.2626 | 10.73 mPa·s
303.15 K, 101 kPa, x1 = 0.17 | 3.42 mPa·s
303.15 K, 101 kPa, x1 = 0.19 | 4.61 mPa·s
303.15 K, 101 kPa, x1 = 0.2 | 5.59 mPa·s
303.15 K, 101 kPa, x1 = 0.22 | 7.24 mPa·s
303.15 K, 101 kPa, x1 = 0.23 | 7.44 mPa·s
303.15 K, 101 kPa, x1 = 0.24 | 8.19 mPa·s and 9.29 mPa·s
303.15 K, 101 kPa, x1 = 0.25 | 10.53 mPa·s
303.15 K, 101 kPa, x1 = 0.26 | 11.37 mPa·s
303.15 K, 101 kPa, x1 = 0.27 | 12.85 mPa·s
310.15 K, 101 kPa, x1 = 0.000205 | 0.7179 mPa·s
310.15 K, 101 kPa, x1 = 0.00126 | 0.7026 mPa·s
310.15 K, 101 kPa, x1 = 0.001978 | 0.7036 mPa·s
310.15 K, 101 kPa, x1 = 0.002695 | 0.6772 mPa·s
310.15 K, 101 kPa, x1 = 0.003679 | 0.6492 mPa·s
310.15 K, 101 kPa, x1 = 0.005197 | 0.5792 mPa·s
310.15 K, 101 kPa, x1 = 0.005988 | 0.5574 mPa·s
313.15 K, 101 kPa, x1 = 0.17 | 2.73 mPa·s
313.15 K, 101 kPa, x1 = 0.19 | 3.59 mPa·s
313.15 K, 101 kPa, x1 = 0.2 | 4.32 mPa·s
313.15 K, 101 kPa, x1 = 0.22 | 5.44 mPa·s
313.15 K, 101 kPa, x1 = 0.23 | 5.67 mPa·s
313.15 K, 101 kPa, x1 = 0.24 | 6.36 mPa·s and 6.96 mPa·s
313.15 K, 101 kPa, x1 = 0.25 | 7.83 mPa·s
313.15 K, 101 kPa, x1 = 0.26 | 8.46 mPa·s
313.15 K, 101 kPa, x1 = 0.27 | 9.36 mPa·s
323.15 K, 101 kPa, x1 = 0.17 | 2.26 mPa·s
323.15 K, 101 kPa, x1 = 0.19 | 2.94 mPa·s
323.15 K, 101 kPa, x1 = 0.2 | 3.49 mPa·s
323.15 K, 101 kPa, x1 = 0.22 | 4.37 mPa·s
323.15 K, 101 kPa, x1 = 0.23 | 4.48 mPa·s
323.15 K, 101 kPa, x1 = 0.24 | 4.99 mPa·s and 5.38 mPa·s
323.15 K, 101 kPa, x1 = 0.25 | 6.06 mPa·s
323.15 K, 101 kPa, x1 = 0.26 | 6.55 mPa·s
323.15 K, 101 kPa, x1 = 0.27 | 7.22 mPa·s

C1CC[C@H]2CCCC[C@H]2C1 + O=C1CCCCC1
viscosity [mPa·s], 101.3 kPa
Conditions | 293.15 K | 303.15 K
x2 = 0.05 | 3.262 | 2.558
x2 = 0.1446 | 3.118 | 2.471
x2 = 0.2281 | 3.006 | 2.399
x2 = 0.35 | 2.863 | 2.302
x2 = 0.4482 | 2.767 | 2.231
x2 = 0.5559 | 2.68 | 2.159
x2 = 0.6271 | 2.634 | 2.115
x2 = 0.7252 | 2.586 | 2.06
x2 = 0.8051 | 2.56 | 2.019
x2 = 0.8571 | 2.549 | 1.995
x2 = 0.9322 | 2.543 | 1.964

From the CheMixHub viscosity set
